Data on 1 compound can be found in PMC5666424, “Marine-Derived 2-Aminoimidazolone Alkaloids. Leucettamine B-Related Polyandrocarpamines Inhibit Mammalian and Protozoan DYRK & CLK Kinases” (Marine Drugs, 2017).

The target in test [1] is T1, ABL1(T315I)-phosphorylated (Homo sapiens, UniProt P00519, T315I).
T1 construct: purchased DiscoverX (KINOMEscan)
The test can be described thus: KinomeScan. The format is binding. The settings on record: 1 μM.

The target in test [2] is T2, ALK (Homo sapiens, UniProt Q9UM73).
T2 construct: purchased DiscoverX (KINOMEscan)
T2 sequence (Q9UM73 19-1620): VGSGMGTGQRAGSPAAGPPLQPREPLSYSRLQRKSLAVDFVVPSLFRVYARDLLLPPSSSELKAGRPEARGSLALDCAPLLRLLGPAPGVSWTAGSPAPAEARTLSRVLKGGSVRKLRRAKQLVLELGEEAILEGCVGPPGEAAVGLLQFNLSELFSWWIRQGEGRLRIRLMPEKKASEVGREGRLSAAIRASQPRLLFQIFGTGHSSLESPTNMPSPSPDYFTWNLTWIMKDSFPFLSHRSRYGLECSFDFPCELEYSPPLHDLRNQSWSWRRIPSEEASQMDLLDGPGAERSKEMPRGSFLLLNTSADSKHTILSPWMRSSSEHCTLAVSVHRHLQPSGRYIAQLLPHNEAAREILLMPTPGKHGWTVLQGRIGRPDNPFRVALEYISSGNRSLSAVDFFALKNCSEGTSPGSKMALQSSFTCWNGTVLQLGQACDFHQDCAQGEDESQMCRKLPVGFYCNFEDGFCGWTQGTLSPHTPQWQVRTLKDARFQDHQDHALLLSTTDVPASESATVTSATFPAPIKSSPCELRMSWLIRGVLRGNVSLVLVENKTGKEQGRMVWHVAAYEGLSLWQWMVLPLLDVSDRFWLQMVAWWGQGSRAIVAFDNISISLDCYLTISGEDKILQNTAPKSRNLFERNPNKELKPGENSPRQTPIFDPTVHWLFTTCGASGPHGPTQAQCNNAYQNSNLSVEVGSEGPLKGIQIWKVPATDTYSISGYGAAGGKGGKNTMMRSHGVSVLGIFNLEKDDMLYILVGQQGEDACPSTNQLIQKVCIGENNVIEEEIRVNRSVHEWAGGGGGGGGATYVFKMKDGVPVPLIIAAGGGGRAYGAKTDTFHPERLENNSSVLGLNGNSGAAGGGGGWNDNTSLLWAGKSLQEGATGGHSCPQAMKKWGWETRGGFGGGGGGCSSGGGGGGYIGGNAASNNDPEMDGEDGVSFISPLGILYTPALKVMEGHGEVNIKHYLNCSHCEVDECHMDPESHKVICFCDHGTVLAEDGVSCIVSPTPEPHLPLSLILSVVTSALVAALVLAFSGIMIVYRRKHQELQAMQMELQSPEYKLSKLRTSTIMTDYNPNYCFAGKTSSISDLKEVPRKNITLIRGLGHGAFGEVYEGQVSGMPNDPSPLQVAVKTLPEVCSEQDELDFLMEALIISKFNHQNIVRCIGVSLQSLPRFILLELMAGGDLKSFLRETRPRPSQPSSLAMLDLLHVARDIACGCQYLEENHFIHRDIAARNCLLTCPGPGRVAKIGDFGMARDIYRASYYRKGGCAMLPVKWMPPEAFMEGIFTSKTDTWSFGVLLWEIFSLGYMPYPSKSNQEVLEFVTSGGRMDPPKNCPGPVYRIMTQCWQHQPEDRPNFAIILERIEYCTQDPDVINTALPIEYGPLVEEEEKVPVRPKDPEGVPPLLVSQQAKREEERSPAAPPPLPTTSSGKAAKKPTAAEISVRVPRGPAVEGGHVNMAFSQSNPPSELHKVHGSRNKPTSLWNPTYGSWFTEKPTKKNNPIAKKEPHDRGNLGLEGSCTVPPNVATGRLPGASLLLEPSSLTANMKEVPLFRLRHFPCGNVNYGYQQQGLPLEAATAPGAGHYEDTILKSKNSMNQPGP
Kind of test: KinomeScan. Format: binding. The settings on record: 1 μM.

Test [3] has as its target T3, MAP3K3 (Homo sapiens, UniProt Q99759).
T3 construct: purchased DiscoverX (KINOMEscan)
The test can be described thus: KinomeScan. The format is binding. The conditions noted are these: 1 μM.

Test [4] addresses T4, ARK5 (Homo sapiens, UniProt O60285).
T4 construct: purchased DiscoverX (KINOMEscan)
Kind of test: KinomeScan. Format: binding. The settings on record: 1 μM.

Test [5] deals with T5, GSK3B (Homo sapiens, UniProt P49841).
T5 construct: purchased DiscoverX (KINOMEscan)
The test can be described thus: KinomeScan. Format: binding. The conditions noted are these: 1 μM.

Test [6] deals with T6, SIK (Homo sapiens, UniProt P57059).
T6 construct: purchased DiscoverX (KINOMEscan)
Kind of test: KinomeScan. The format is binding. The conditions noted are these: 1 μM.

Test [7] concerns the target T7, EPHB1 (Homo sapiens, UniProt P54762).
T7 construct: purchased DiscoverX (KINOMEscan)
The test can be described thus: KinomeScan. The conditions noted are these: 1 μM. The format is binding.

For test [8], the target named is T8, NDR1 (Homo sapiens, UniProt Q15208).
T8 construct: purchased DiscoverX (KINOMEscan)
T8 sequence (Q15208 whole entry): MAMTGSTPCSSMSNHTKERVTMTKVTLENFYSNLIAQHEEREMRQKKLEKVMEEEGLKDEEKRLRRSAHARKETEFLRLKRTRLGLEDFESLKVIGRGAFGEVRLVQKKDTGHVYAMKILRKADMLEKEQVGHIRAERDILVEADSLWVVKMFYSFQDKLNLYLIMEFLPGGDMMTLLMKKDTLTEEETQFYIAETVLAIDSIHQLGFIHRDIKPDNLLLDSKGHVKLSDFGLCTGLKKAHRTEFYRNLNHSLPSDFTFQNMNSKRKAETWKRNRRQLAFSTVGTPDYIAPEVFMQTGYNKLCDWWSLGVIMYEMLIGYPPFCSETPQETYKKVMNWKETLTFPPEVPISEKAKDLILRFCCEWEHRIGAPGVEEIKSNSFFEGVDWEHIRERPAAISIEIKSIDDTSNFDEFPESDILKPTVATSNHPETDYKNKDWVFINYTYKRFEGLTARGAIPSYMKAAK
The test can be described thus: KinomeScan. The format is binding. The conditions noted are these: 1 μM.

Test [9] has as its target T9, FGFR2 (Homo sapiens, UniProt P21802).
T9 construct: purchased DiscoverX (KINOMEscan)
The test can be described thus: KinomeScan. The format is binding. The conditions noted are these: 1 μM.

Test [10] concerns the target CLK1 (Homo sapiens, UniProt P49759). The test can be described thus: KinomeScan. The format is binding. The conditions noted are these: 1 μM.
Description: For most assays, kinase-tagged T7 phage strains were grown in parallel in 24-well blocks in an E. coli host derived from the BL21 strain. E. coli were grown to log-phase and infected with T7 phage from a frozen stock (multiplicity of infection ~0.1) and incubated with shaking at 32 °C until lysis (~90 min). The lysates were centrifuged (6000× g) and filtered (0.2 μm) to remove cell debris. The remaining kinases were produced in HEK-293 cells and subsequently tagged with DNA for qPCR detection. […] The liganded beads were blocked with excess biotin and washed with blocking buffer (SeaBlock (Pierce, ThermoFisher Scientific, Illkirch, France), 1% BSA, 0.05% Tween 20, 1 mM DTT) to remove unbound ligand and to reduce non-specific phage binding. […] An 11-point threefold serial dilution of each test compound was prepared in 100% DMSO at 100× final test concentration which and subsequently diluted to 1× in the assay. All reactions were performed in polystyrene 96-well plates in a final volume of 0.135 mL. […] The kinase concentration in the eluates was measured by qPCR.
Test [11] deals with DYRK1A (Homo sapiens, UniProt Q13627). The test can be described thus: Thr286-cyclin D1 phosphorylation in SH-SY5Y cells. The format is cell-based. On the set-up: expressed in transfected cells; host or cells: SH-SY5Y neuroblastoma cells, doxycycline-inducible (gift from Dr. Walter Becker). The conditions noted are these: 30 μM, 24 h.
Description: Cell treatments. SH-SY5Y cells conditionally expressing human DYRK1A [36], under the control of doxycycline (gift from Dr. Walter Becker) were cultured Dulbecco’s Modified Eagle Medium (DMEM): Nutrient Mixture F-12 (DMEM/F-12, Gibco, c/o Invitrogen, Saint Aubin, France) containing 1% Penicillin Streptomycin mixture (Gibco) and 10% fetal bovine serum (FBS, Gibco) in a humidified, 5% CO2 incubator at 37 °C. Cells were split routinely once a week. They were first rinsed with phosphate buffered saline (PBS, Gibco) and detached from the plate bottom using 2 mL Trypsin (Gibco) at 37 °C for 3–4 min. Eight mL of fresh medium were added to the cell suspension and the mix was centrifuged for 3 min at 1000 rpm. The cell pellet was resuspended in fresh medium before seeding (½ dilution) in new 150 mm plates. First, 1 μg/mL doxycycline was used to induce DYRK1A expression and cells were incubated 24 h in a humidified, 5% CO2 incubator at 37 °C. Drugs (0, 3 or 30 μM final) were then added with a final concentration of 0.1% DMSO and cells were incubated for an additional 24 h in a humidified, 5% CO2 incubator at 37 °C. Afterwards, cells were scrapped in medium and centrifuged for 5 min at 3000 rpm at 4 °C. The pellets were washed twice with PBS, centrifuge for 5 min at 10,000 g at 4 °C, snap-frozen in liquid nitrogen and kept at −80 °C.
Western blot analysis. […]

Molecules are shown by their SMILES.

T9 sequence (P21802 22-821): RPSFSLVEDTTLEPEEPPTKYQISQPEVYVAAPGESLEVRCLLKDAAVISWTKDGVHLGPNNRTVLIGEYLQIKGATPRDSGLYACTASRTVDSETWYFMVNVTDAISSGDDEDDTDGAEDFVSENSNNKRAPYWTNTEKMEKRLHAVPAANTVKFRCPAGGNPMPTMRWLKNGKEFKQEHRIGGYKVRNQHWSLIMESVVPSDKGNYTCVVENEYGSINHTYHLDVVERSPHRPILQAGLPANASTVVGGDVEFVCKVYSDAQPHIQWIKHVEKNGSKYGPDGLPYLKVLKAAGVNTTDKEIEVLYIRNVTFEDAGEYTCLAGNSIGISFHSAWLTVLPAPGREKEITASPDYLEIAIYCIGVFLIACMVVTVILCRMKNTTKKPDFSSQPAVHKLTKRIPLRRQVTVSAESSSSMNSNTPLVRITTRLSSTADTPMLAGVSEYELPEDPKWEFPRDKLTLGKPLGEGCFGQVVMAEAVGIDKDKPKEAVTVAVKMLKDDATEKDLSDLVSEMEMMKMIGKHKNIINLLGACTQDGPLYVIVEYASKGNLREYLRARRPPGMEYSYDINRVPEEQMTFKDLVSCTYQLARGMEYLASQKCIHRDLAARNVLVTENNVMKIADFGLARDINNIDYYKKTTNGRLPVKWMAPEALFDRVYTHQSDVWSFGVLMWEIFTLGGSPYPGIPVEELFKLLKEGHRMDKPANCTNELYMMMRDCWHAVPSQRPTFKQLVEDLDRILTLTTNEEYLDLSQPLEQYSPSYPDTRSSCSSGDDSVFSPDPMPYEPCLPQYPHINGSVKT
Chain of CLK1 (P49759 whole entry): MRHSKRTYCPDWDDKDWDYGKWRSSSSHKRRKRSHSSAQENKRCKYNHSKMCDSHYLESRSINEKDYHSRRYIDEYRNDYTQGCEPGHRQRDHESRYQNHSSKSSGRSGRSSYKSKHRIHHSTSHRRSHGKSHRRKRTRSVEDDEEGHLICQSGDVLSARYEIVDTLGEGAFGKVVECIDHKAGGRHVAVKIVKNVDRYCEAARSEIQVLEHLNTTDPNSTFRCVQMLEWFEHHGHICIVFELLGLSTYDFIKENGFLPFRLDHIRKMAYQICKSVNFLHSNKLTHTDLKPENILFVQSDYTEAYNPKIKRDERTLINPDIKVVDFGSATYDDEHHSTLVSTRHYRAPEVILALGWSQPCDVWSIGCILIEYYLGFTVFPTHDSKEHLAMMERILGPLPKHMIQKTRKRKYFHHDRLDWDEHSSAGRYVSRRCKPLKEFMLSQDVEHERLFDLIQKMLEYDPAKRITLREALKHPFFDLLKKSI
T4 sequence (O60285 whole entry): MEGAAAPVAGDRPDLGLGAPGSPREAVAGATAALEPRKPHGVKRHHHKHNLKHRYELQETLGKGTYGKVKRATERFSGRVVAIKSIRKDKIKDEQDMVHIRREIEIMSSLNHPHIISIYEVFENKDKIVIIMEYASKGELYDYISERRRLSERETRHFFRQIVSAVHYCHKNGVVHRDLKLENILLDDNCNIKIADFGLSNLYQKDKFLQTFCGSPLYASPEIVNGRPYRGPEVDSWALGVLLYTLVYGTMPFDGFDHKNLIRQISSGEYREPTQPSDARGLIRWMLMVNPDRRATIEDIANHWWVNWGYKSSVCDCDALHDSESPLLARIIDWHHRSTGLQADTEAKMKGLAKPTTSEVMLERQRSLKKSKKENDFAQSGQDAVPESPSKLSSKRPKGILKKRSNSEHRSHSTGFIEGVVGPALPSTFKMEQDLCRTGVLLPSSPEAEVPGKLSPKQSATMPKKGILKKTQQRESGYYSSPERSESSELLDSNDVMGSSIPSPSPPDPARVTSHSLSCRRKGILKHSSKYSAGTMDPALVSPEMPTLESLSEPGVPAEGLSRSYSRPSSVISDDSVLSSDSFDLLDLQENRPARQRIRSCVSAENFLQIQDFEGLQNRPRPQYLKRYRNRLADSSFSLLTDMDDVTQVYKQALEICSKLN
T7 sequence (P54762 18-984): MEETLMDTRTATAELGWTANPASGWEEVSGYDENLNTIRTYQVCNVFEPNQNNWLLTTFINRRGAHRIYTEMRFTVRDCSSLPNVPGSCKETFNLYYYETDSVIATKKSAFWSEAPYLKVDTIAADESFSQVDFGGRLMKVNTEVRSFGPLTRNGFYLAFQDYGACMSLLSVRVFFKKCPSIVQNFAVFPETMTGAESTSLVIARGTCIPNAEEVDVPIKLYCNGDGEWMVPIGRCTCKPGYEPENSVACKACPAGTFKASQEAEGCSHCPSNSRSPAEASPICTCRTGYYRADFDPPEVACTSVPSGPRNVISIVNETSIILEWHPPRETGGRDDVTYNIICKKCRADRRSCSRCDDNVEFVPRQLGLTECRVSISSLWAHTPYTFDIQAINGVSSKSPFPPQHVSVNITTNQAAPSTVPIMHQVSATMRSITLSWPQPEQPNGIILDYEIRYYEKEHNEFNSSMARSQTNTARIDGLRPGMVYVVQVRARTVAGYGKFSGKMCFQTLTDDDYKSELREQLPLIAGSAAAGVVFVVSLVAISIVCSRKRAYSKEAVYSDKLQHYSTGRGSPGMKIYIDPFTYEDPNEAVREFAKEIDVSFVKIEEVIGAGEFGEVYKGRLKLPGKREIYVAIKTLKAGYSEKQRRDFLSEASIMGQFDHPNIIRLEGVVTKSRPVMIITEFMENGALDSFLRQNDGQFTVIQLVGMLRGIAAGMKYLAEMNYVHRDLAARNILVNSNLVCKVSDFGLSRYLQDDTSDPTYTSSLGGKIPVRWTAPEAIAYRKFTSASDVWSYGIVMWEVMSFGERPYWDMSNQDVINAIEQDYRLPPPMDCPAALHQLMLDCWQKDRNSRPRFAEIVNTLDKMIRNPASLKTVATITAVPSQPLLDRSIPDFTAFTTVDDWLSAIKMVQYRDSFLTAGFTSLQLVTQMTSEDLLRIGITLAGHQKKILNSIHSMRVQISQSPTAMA

With `COc1cc(/C=C2\N=C(N)NC2=O)ccc1O` [Polyandrocarpamine A], the Score in test [1] worked out at 85; in test [2], 100; in [3] it was 100; in test [4], 71; in [5] it was 100; in test [6] it was 100. Besides, the Score in [7] was determined as 89; in test [8], 100; in test [9], 100; in test [10] it was 32. In test [11], the “Phosphorylation of cyclin D1 at Thr286” value is “partially inhibited”.
